The molecules below were run on rabbit skeletal myofibrils (fast skeletal myofibrils) (assay: Activation of fast skeletal myofibrils (PUMA assay, AC1.4)). Settings: calcium at pCa25, AC1.4 = concentration at which the compound increased the enzymatic activity.
Assay type: biochemical
Outline: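 Detergent-washed rabbit psoas myofibrils (~90% fast fibers), calcium set to give 25% of maximal rate (pCa25). ATPase followed by pyruvate kinase/lactate dehydrogenase-coupled NADH oxidation, absorbance at 340 nm. PM12 buffer: 12 mM PIPES, 2 mM MgCl2, 1 mM DTT, pH 6.8.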
In the case of `CC[C@H](C)[C@H]1C(=O)Nc2ccccc2CN1C(=O)CCN1CCC[C@H]1C(N)=O` [Compound 186, (S)-1-(3-((S)-3-((S)-sec-butyl)-2-oxo-1,2,3,5-tetrahydro-4H-benzo[e][1,4]diazepin-4-yl)-3-oxopropyl)pyrrolidine-2-carboxamide], the AC1.4 was 2.18 µM. For `CC[C@H](C)[C@H]1C(=O)Nc2ccccc2CN1C(=O)CCN1CCC[C@@H]1C(N)=O` [Compound 187, (R)-1-(3-((S)-3-((S)-sec-butyl)-2-oxo-1,2,3,5-tetrahydro-4H-benzo[e][1,4]diazepin-4-yl)-3-oxopropyl)pyrrolidine-2-carboxamide], the AC1.4 was 1.39 µM. For `CC[C@H](C)[C@H]1C(=O)Nc2ccccc2CN1C(=O)[C@H]1CCCN1CCC(N)=O` [Compound 188, 3-((R)-2-((S)-3-((S)-sec-butyl)-2-oxo-2,3,4,5-tetrahydro-1H-benzo[e][1,4]diazepine-4-carbonyl)pyrrolidin-1-yl)propanamide], the AC1.4 was 3.46 µM. In the case of `CC[C@H](C)[C@H]1C(=O)Nc2ccccc2CN1C(=O)c1cn(C)nn1` [Compound 189, (S)-3-((S)-sec-butyl)-4-(1-methyl-1H-1,2,3-triazole-4-carbonyl)-1,3,4,5-tetrahydro-2H-benzo[e][1,4]diazepin-2-one], the AC1.4 was 0.10 µM. `CC[C@H](C)[C@H]1C(=O)Nc2ccccc2CN1C(=O)c1ccnnc1` [Compound 190, (S)-3-((S)-sec-butyl)-4-(pyridazine-4-carbonyl)-1,3,4,5-tetrahydro-2H-benzo[e][1,4]diazepin-2-one] gave an AC1.4 of 0.54 µM. In the case of `CC[C@H](C)[C@H]1C(=O)Nc2ccccc2CN1C(=O)c1cncnc1` [Compound 191, (S)-3-((S)-sec-butyl)-4-(pyrimidine-5-carbonyl)-1,3,4,5-tetrahydro-2H-benzo[e][1,4]diazepin-2-one], the AC1.4 was 0.19 µM. `CC[C@H](C)[C@H]1C(=O)Nc2ccccc2CN1C(=O)c1cccnn1` [Compound 192, (S)-3-((S)-sec-butyl)-4-(pyridazine-3-carbonyl)-1,3,4,5-tetrahydro-2H-benzo[e][1,4]diazepin-2-one] was tested, and the AC1.4 was 0.19 µM. For `CC[C@H](C)[C@H]1C(=O)Nc2ccccc2CN1C(=O)[C@@H]1CC(=O)N(C)C1` [Compound 193, (S)-3-((S)-sec-butyl)-4-((R)-1-methyl-5-oxopyrrolidine-3-carbonyl)-1,3,4,5-tetrahydro-2H-benzo[e][1,4]diazepin-2-one], the AC1.4 was 0.72 µM. `CC[C@H](C)[C@H]1C(=O)Nc2ccccc2CN1C(=O)[C@H]1CC(=O)N(C)C1` [Compound 194, (S)-3-((S)-sec-butyl)-4-((S)-1-methyl-5-oxopyrrolidine-3-carbonyl)-1,3,4,5-tetrahydro-2H-benzo[e][1,4]diazepin-2-one] showed an AC1.4 of 1.52 µM. For `CC[C@H](C)[C@H]1C(=O)Nc2ccccc2CN1C(=O)CNC(C)=O` [Compound 195, N-(2-((S)-3-((S)-sec-butyl)-2-oxo-1,2,3,5-tetrahydro-4H-benzo[e][1,4]diazepin-4-yl)-2-oxoethyl)acetamide], the AC1.4 was 1.84 µM. `CC[C@H](C)[C@H]1C(=O)Nc2ccccc2CN1C(=O)[C@H](C)NC(C)=O` [Compound 196, N-((S)-1-((S)-3-((S)-sec-butyl)-2-oxo-1,2,3,5-tetrahydro-4H-benzo[e][1,4]diazepin-4-yl)-1-oxopropan-2-yl)acetamide] showed an AC1.4 of 2.09 µM. With `CC[C@H](C)[C@H]1C(=O)Nc2ccccc2CN1C(=O)[C@H]1CCCN1C(C)=O` [Compound 197, (S)-4-(acetyl-D-prolyl)-3-((S)-sec-butyl)-1,3,4,5-tetrahydro-2H-benzo[e][1,4]diazepin-2-one] the AC1.4 was 1.76 µM. `CC[C@H](C)[C@H]1C(=O)Nc2ccccc2CN1C(=O)[C@@H](C)NC(C)=O` [Compound 198, N-((R)-1-((S)-3-((S)-sec-butyl)-2-oxo-1,2,3,5-tetrahydro-4H-benzo[e][1,4]diazepin-4-yl)-1-oxopropan-2-yl)acetamide] was tested, and the AC1.4 was 1.66 µM.
